Where “and” joins values, the source holds several entries; their conditions need not be identical. Equal values may be shown once. Blank lines part the entries; values can stand above or below the compound they belong to.
System: K12877-001-R-J1-PDC complex spheroid viability
Experiment: Anticancer human tumor K12877-001-R-J1-PDC patient-derived lung adenocarcinoma cell line growth inhibition [RAS]
Conditions: for IC50: curve of first compound; for viability, T/C: stronger effect = lower value
From the text: RAS pathway inhibitors in Combinations in Complex Spheroids
A high-throughput screen of multi-cell type tumor spheroids was designed to identify active combinations of RAS pathway inhibitors and targeted small molecules. Complex spheroids include a stromal component modeled by human endothelial cells (HUVEC) and fibroblasts modeled by human mesenchymal stem cells (MSCs). The concentration ranges selected for each drug and investigational agent were based upon clinically achievable concentrations if the clinical Cmax of the agent was known.
Compounds. The drugs and investigational agents: abemaciclib (NSC768073), cobimetinib (NSC768068), divarasib (GDC6063, NSC841802), docetaxel (NSC628503), GDC-1971 (RLY-1971, NSC841576), gemcitabine (NSC613327), inavolisib (NSC800729), ipatasertib (NSC767898), KB-0742 (NSC834161), MRTX-1133 (NSC836407), osimertinib (NSC779217), RMC-4630 (NSC839698), RMC-6236 (NSC851965), RMC-6291 (NSC852671), Ro-3306 (NSC812927), sapanisertib (NSC764658), SN-38 (NSC673596), staurosporine (NSC755774), SY5609 (NSC837396), and tovorafenib (DAY101, NSC766906), were obtained from the National Cancer Institute (NCI) Developmental Therapeutics Program Chemical Repository. The FDA-approved anticancer drug set is available from the NCI Developmental Therapeutics Program. […] The stock solutions were prepared in dimethyl sulfoxide (DMSO, Sigma-Aldrich, St. Louis, MO, cat. D2650) at 800-fold the tested concentration and stored at -70 degrees C prior to their use. All drugs and investigational agents were tested over a range starting from a high concentration at or near the clinical Cmax and decreasing in half-log increments. If the clinical Cmax for an agent had not been determined, the highest concentration tested was 10 microM.
Cell Culture. All cells were maintained in an incubator at 37 degrees C and 5% CO2 with 95% humidity. The PDC lines were cultured according to standard operating procedures established by the NCI PDMR. All PDCs were thawed and cultured in Matrigel-coated flasks prepared with a working solution of 1X Ham's F-12 nutrient mix, without supplementation (Invitrogen, Waltham, MA, cat. 11765054), 100 U/mL penicillin-streptomycin (Invitrogen, cat. 15140122), and 2.5% Matrigel (Corning Inc., Corning, NY, cat. 354248) for the first three passages. The 362531-283-R-J2-PDC and 782815-120-R-J1-PDC lines were cultured in 6C/Colon 1B media, which includes advanced DMEM/F-12 (Thermo Fisher Scientific, cat. 12634028), 10 mM HEPES (Thermo Fisher Scientific, cat. 15630080), 1X GlutaMAX supplement (Thermo Fisher Scientific, cat. 35050061), 0.1 mg/mL primocin (InvivoGen, San Diego, CA, cat. ant-pm-2), 10% defined fetal bovine serum, heat inactivated (HyClone Laboratories Inc., Logan, UT, cat. SH30070.03HI), 50% L-WRN conditioned media (ATCC, cat. CRL-3276), 1.25 mM N-Acetyl-L-cysteine (Sigma-Aldrich, cat. A9165), 10 mM nicotinamide (Sigma-Aldrich, cat. N0636), 1X B-27 supplement (Thermo Fisher Scientific, cat. 17504044), 1X N-2 supplement (Thermo Fisher Scientific, cat. 17502048), 50 ng/mL human EGF (Thermo Fisher Scientific, cat. PHG0311), and 10 microM Y-27632 dihydrochloride (Tocris Bioscience, cat. 1254). The K12877-001-R-J1-PDC line was cultured in 6I media, which includes all 6C/Colon 1B media plus 10 ng/mL human FGF-10 (PeproTech, cat. 100-26), 1 ng/mL human FGF-2 (PeproTech, cat. 100-18B), 1 µM prostaglandin E2 (Tocris Bioscience, cat. 2296), […] hydrocortisone (Sigma-Aldrich, cat. H4001), and […] bovine insulin (Sigma-Aldrich, cat. I6634). The K86415-001-R-J1-PDC line was cultured in 6D media, which includes all 6C/Colon 1B media components minus the L-WRN conditioned media. The 485176-168-R4-J1-PDC was cultured in PANC media, which includes all 6C/Colon 1B media plus 100 ng/mL human FGF-10 (PeproTech, cat. 100-26), 500 nM SB-431542 (Selleckchem, cat. S1067), and 10 nM gastrin (Tocris Bioscience, cat. 3006). […]
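Also: spheroids exposed to agents for one week before readout.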

IC50 (second compound 0.0316 µM): 3.31 µM
IC50 (second compound 0.1 µM): 3.06 µM
IC50 (second compound 0.316 µM): 3.92 µM
IC50 (second compound 1 µM): 3.97 µM
IC50 (second compound 3.16 µM): 4.16 µM
IC50 (second compound 10 µM): 3.48 µM
SMILES: CC1(O)CCCC1n1c(=O)c(C(F)F)cc2cnc(NC3CCN(S(C)(=O)=O)CC3)nc21 (stereo unspecified) + C#Cc1c(F)ccc2cc(O)cc(-c3ncc4c(N5CC6CCC(C5)N6)nc(OCC56CCCN5CC(F)C6)nc4c3F)c12
viability, T/C (second compound 0.0316 µM, first compound 0.0316 µM): 98.5%
viability, T/C (second compound 0.0316 µM, first compound 0.1 µM): 115%
viability, T/C (second compound 0.0316 µM, first compound 0.316 µM): 77.2%
viability, T/C (second compound 0.0316 µM, first compound 1 µM): 72.1%
viability, T/C (second compound 0.0316 µM, first compound 3.16 µM): 60.9%
viability, T/C (second compound 0.0316 µM, first compound 10 µM): 3.3%
viability, T/C (second compound 0.1 µM, first compound 0.0316 µM): 112%
viability, T/C (second compound 0.1 µM, first compound 0.1 µM): 115%
viability, T/C (second compound 0.1 µM, first compound 0.316 µM): 87.7%
viability, T/C (second compound 0.1 µM, first compound 1 µM): 66%
viability, T/C (second compound 0.1 µM, first compound 3.16 µM): 62.7%
viability, T/C (second compound 0.1 µM, first compound 10 µM): 3.47%
viability, T/C (second compound 0.316 µM, first compound 0.0316 µM): 119%
viability, T/C (second compound 0.316 µM, first compound 0.1 µM): 104%
viability, T/C (second compound 0.316 µM, first compound 0.316 µM): 85.3%
viability, T/C (second compound 0.316 µM, first compound 1 µM): 81.1%
viability, T/C (second compound 0.316 µM, first compound 3.16 µM): 72.3%
viability, T/C (second compound 0.316 µM, first compound 10 µM): 3.03%
viability, T/C (second compound 1 µM, first compound 0.0316 µM): 106%
viability, T/C (second compound 1 µM, first compound 0.1 µM): 106%
viability, T/C (second compound 1 µM, first compound 0.316 µM): 84.7%
viability, T/C (second compound 1 µM, first compound 1 µM): 83%
viability, T/C (second compound 1 µM, first compound 3.16 µM): 67.2%
viability, T/C (second compound 1 µM, first compound 10 µM): 3.27%
viability, T/C (second compound 3.16 µM, first compound 0.0316 µM): 120%
viability, T/C (second compound 3.16 µM, first compound 0.1 µM): 93.1%
viability, T/C (second compound 3.16 µM, first compound 0.316 µM): 93.3%
viability, T/C (second compound 3.16 µM, first compound 1 µM): 80%
viability, T/C (second compound 3.16 µM, first compound 3.16 µM): 74.1%
viability, T/C (second compound 3.16 µM, first compound 10 µM): 3.16%
viability, T/C (second compound 10 µM, first compound 0.0316 µM): 92%
viability, T/C (second compound 10 µM, first compound 0.1 µM): 87%
viability, T/C (second compound 10 µM, first compound 0.316 µM): 71.6%
viability, T/C (second compound 10 µM, first compound 1 µM): 76.9%
viability, T/C (second compound 10 µM, first compound 3.16 µM): 56.3%
viability, T/C (second compound 10 µM, first compound 10 µM): 2.77%

SMILES: CC(C)NCC(C(=O)N1CCN(c2ncnc3c2C(C)CC3O)CC1)c1ccc(Cl)cc1 (stereo unspecified)
viability, T/C (compound 0.0316 µM): 107% and 110% (2×) and 97.4%
viability, T/C (compound 0.1 µM): 102% [middle of 4 runs]

IC50 (second compound 0.000949 µM): > 1 µM
IC50 (second compound 0.003 µM): > 1 µM
IC50 (second compound 0.00949 µM): > 1 µM
IC50 (second compound 0.03 µM): > 1 µM
IC50 (second compound 0.0949 µM): > 1 µM
IC50 (second compound 0.3 µM): > 1 µM
SMILES: C=CC(=O)Nc1cc(Nc2nccc(-c3cn(C)c4ccccc34)n2)c(OC)cc1N(C)CCN(C)C + CCn1c(-c2cc(N3CCN(C)CC3)cnc2C(C)OC)c2c3cc(ccc31)-c1csc(n1)CC(NC(=O)C1CC1C)C(=O)N1CCCC(N1)C(=O)OCC(C)(C)C2
viability, T/C (second compound 0.000949 µM, first compound 0.00316 µM): 90.8%
viability, T/C (second compound 0.000949 µM, first compound 0.01 µM): 69.3%
viability, T/C (second compound 0.000949 µM, first compound 0.0316 µM): 83.4%
viability, T/C (second compound 0.000949 µM, first compound 0.1 µM): 78.9%
viability, T/C (second compound 0.000949 µM, first compound 0.316 µM): 82.4%
viability, T/C (second compound 0.000949 µM, first compound 1 µM): 71.3%
viability, T/C (second compound 0.003 µM, first compound 0.00316 µM): 73.7%
viability, T/C (second compound 0.003 µM, first compound 0.01 µM): 70.3%
viability, T/C (second compound 0.003 µM, first compound 0.0316 µM): 66.1%
viability, T/C (second compound 0.003 µM, first compound 0.1 µM): 74.4%
viability, T/C (second compound 0.003 µM, first compound 0.316 µM): 74.9%
viability, T/C (second compound 0.003 µM, first compound 1 µM): 72%
viability, T/C (second compound 0.00949 µM, first compound 0.00316 µM): 82.9%
viability, T/C (second compound 0.00949 µM, first compound 0.01 µM): 71.4%
viability, T/C (second compound 0.00949 µM, first compound 0.0316 µM): 69%
viability, T/C (second compound 0.00949 µM, first compound 0.1 µM): 69.6%
viability, T/C (second compound 0.00949 µM, first compound 0.316 µM): 63%
viability, T/C (second compound 0.00949 µM, first compound 1 µM): 73%
viability, T/C (second compound 0.03 µM, first compound 0.00316 µM): 89.3%
viability, T/C (second compound 0.03 µM, first compound 0.01 µM): 83.2%
viability, T/C (second compound 0.03 µM, first compound 0.0316 µM): 80.4%
viability, T/C (second compound 0.03 µM, first compound 0.1 µM): 75.9%
viability, T/C (second compound 0.03 µM, first compound 0.316 µM): 90.2%
viability, T/C (second compound 0.03 µM, first compound 1 µM): 93.1%
viability, T/C (second compound 0.0949 µM, first compound 0.00316 µM): 106%
viability, T/C (second compound 0.0949 µM, first compound 0.01 µM): 104%
viability, T/C (second compound 0.0949 µM, first compound 0.0316 µM): 125%
viability, T/C (second compound 0.0949 µM, first compound 0.1 µM): 97.7%
viability, T/C (second compound 0.0949 µM, first compound 0.316 µM): 87.7%
viability, T/C (second compound 0.0949 µM, first compound 1 µM): 84.7%
viability, T/C (second compound 0.3 µM, first compound 0.00316 µM): 90%
viability, T/C (second compound 0.3 µM, first compound 0.01 µM): 96.1%
viability, T/C (second compound 0.3 µM, first compound 0.0316 µM): 93%
viability, T/C (second compound 0.3 µM, first compound 0.1 µM): 89.8%
viability, T/C (second compound 0.3 µM, first compound 0.316 µM): 82.5%
viability, T/C (second compound 0.3 µM, first compound 1 µM): 73.7%
